Experimental findings from patent publication US8349862B2, “Pyridine derivatives for the treatment of metabolic disorders related to insulin resistance or hyperglycemia” (Piramal Healthcare Limited, priority 2006, dated 2013) are described below.

Molecules are shown by their SMILES.

In one assay the target is T1, Human PPARγ (Homo sapiens, UniProt P37231).
T1 construct: Human full length PPARγ cDNA was cloned into pSG5 expression vector; expressed in transfected cells; host or cells: HEK293
T1 sequence (P37231 1-505): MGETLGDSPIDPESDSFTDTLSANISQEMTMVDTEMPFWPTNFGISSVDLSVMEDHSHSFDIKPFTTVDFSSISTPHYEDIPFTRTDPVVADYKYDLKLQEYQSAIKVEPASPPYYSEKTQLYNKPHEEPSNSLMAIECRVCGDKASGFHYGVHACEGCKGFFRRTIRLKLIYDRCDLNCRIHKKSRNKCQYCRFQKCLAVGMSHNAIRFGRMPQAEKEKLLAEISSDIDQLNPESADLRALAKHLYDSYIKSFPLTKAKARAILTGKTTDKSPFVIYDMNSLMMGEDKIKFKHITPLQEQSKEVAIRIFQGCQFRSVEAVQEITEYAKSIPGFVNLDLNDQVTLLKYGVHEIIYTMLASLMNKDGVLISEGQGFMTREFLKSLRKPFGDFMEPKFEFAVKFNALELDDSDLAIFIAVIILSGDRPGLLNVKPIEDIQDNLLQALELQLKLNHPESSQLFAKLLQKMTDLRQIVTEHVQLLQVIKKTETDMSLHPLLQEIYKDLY
The assay can be described thus: Human PPARγ transactivation assay (luciferase reporter, HEK293 cells). The class given is cell-based. Here is the method:
The assay was designed as in the reference, Biochem. Biophys. Res. Comm. 175:865-871, 1991, the disclosure of which is incorporated by reference for the teaching of the assay.
Human PPARγ activity was evaluated by transactivation using a luciferase reporter gene. […] Human full length PPARγ cDNA was cloned into pSG5 expression vector (Stratagene, Lo Jolla, Calif.).
HEK293 cells were seeded in 24 well plates and grown in DMEM supplemented with 10% (v/v) FCS. After 24 hours, they were transfected with 100 ng of hPPARγ receptor and 300 ng of AOX-3×PPRE-LUC reporter construct per well using Fugen 6 transfection reagent (Roche, Indianapolis, Ind.). […] The control was 0.1% DMSO. After 48 hours, transactivation activity was determined by luciferase assay using Steady Glow reagent (Promega, Madison, Wis.).

In a further assay the target is T2, Mouse PPARγ (Mus musculus, UniProt P37238).
T2 construct: endogenous in cells; host or cells: 3T3-L1 fibroblasts
T2 sequence (P37238 1-505): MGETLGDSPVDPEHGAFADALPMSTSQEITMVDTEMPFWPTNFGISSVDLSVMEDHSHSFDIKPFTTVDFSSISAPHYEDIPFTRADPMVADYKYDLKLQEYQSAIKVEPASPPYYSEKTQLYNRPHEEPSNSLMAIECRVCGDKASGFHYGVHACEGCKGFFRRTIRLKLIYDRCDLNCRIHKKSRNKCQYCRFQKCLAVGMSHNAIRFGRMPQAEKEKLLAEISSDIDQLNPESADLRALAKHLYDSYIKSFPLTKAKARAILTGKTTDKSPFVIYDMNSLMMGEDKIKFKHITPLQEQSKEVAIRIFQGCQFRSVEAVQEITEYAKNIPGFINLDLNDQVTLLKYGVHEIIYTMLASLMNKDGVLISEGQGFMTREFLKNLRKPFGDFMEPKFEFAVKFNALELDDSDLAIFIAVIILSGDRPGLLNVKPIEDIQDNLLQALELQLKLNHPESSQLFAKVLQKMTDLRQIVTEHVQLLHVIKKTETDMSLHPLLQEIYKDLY
The assay is described as follows: Mouse PPARγ assay (TransAM PPARγ ELISA, 3T3-L1 fibroblasts). The class given is cell-based. Particulars: 72 hrs, Compound 1 50 μM, Rosiglitazone 10 μM. Here is the method:
The assay was designed as in the reference, Blood, 104(5), 1361-8, 2004, the disclosure of which is incorporated by reference for the teaching of the assay.
3T3-L1 fibroblasts were seeded in 6-well plates at a density of 4×10^4 cells/well and cultured in DMEM containing 10% calf serum. […] The plates were incubated for 72 hrs at 37° C. in a CO2 incubator with fresh medium containing test substances added after first 48 hrs. After 72 hrs, the medium was removed; the cell layer was washed and processed for the PPARγ assay as per the instruction of the manufacturer (Active Motif, North America, California, USA). PPARγ activation was determined using 96-well ELISA assay as per the instruction manual (TransAM PPARγ. Active Motif, Cat 0.40196).
(In general: ELISA stands for enzyme-linked immunosorbent assay.)

Assay [1] deals with genetically diabetic db/db BL/6J mice. The assay is described as follows: Screening in db/db BL/6J mice: reduction of plasma glucose. The class given is in vivo. Particulars: 100 mpk bid, 10 days. Here is the method:
The protocol was designed as in references. • 1.
The screening of compounds was based on their ability to reduce the plasma glucose levels in genetically diabetic db/db BL/6J mice.
Male db/db mice (obtained from the Animal House of Nicholas Piramal Research Centre, Goregaon, Mumbai, India) were used for this study (body weight in the range of 30-40 g and age is 6-8 weeks) and were kept eight per cage in individually ventilated cages at controlled temperature (22±1° C.) and humidity (45±5%). Food and water were provided ad libitum during their laboratory stay, except for four hours fasting prior to blood sample collection. 12 hours light and dark cycle was followed during the whole study period.
After 4 hours fasting blood samples were collected from mice. Mice showing plasma glucose levels between 300 to 500 mg/dl were divided in groups (8-10 per group) such that the mean plasma glucose levels and variation within the group, for each group, is nearly the same. After grouping, mice in respective groups received treatment with 0.5% CMC vehicle, standard compound or test compounds for 10 days.
After 4 hours fasting, mice were anaesthetized using isoflurane (inhalation anesthetic), and blood samples were collected through the retro orbital plexus. Collected blood samples were centrifuged at 7000 rpm for 10 minutes at 4° C.; Separated plasma was used for estimation of plasma glucose using diagnostic kits (Diasys, Germany). Plasma glucose levels of treated groups were normalized with control group using the following formula, which accounted for the changes in control group.
Formula used for normalization was *: {1−(Ratio of mean plasma glucose levels of control group on day 10 to day 0)/(Ratio of plasma glucose levels of treated group on day 10 to day 0)}×100.

Another assay has as its system lean C57Bl6/J mice. The assay is described as follows: Evaluation of antiobesity, acute study: food intake in fasted lean mice. The class given is in vivo. The settings on record: 100 mg/kg intraperitoneally, 2 hours after food introduction, p<0.001 vs vehicle. The source says: The effect of standard (Sibutramine), Compound 1 and Compound 11 on food intake in lean C57Bl6/J mice at 2, 4, 6 and 24 hrs post-food introductions is indicated.
The assay was designed as in reference, PCT publication WO 2003086306, the disclosure of which is incorporated by reference for the teaching of the assay.
Male C57Bl6/J mice, weighing 20-25 g, were housed individually in the animal facility. Water and Chow (Amrut Laboratory Animal feed, Sangli, Maharashtra, India) were available ad libitum. One day before the study, the animals were weighed and separated into treatment groups having similar average body weight. For the experiment, the animals were deprived of food overnight for 16 hours. They were dosed intraperitoneally with test compounds (100 mg/kg) or comparator standard (Sibutramine, 3 mg/kg) in saline vehicle (10 mL/kg). Half an hour after drug administration the animals were presented with a pre-weighed amount of food in the food cup. Food that remained in the cup was measured at various time points. The effect of standard, and test compounds on food intake in fasted lean C57Bl6/J mice at 2, 4, 6 and 24 hrs post-food introductions was evaluated. […] (*** p<0.001 vs vehicle treated controls) (b) Chronic Study

`CC(=O)N1CCN(c2ccc(Oc3ncc(NS(=O)(=O)c4ccc(Cl)cc4Cl)cc3Cl)cc2)CC1` [Compound 1, N-(6-(4-(4-Acetylpiperazin-1-yl)phenoxy)-5-chloropyridin-3-yl)-2,4-dichlorobenzene-sulfonamide]: the entries for the “PPARγ activity (% of rosiglitazone)” value at Human PPARγ and at Mouse PPARγ were 6.4 % of rosiglitazone and 5.1 % of rosiglitazone, respectively. In assay [1], the “Normalization with control (plasma glucose reduction)” value is listed as 46.07 ± 4.55. Besides, the “Inhibition of food intake” value in the assay on lean C57Bl6/J mice is “effective in inhibiting food intake”.
